These results are taken from patent US20060004197A1, “Sulfonamide-based compounds as protein tyrosine kinase inhibitors” (priority 2004, published 2006).

Common to all, as to assay type: biochemical
The target of one assay is FGF receptor (FGFr). The assay is described as follows: FGFr tyrosine kinase activity, poly E4Y / 32P-ATP phosphorylation assay.
The next assay has as its target T1, Recombinant human Src (Homo sapiens, UniProt P12931).
T1 construct: made in house; host or cells: baculovirus-insect cell system
The assay is described as follows: Src tyrosine kinase activity, poly E4Y / 32P-ATP phosphorylation assay.

In another assay the target is Recombinant Csk (Homo sapiens, UniProt P41240). The experiment in a line: Csk tyrosine kinase activity, poly E4Y / 32P-ATP phosphorylation assay.
The mark [1] stands for this setting: Table 3, Formula II compounds, NI = no inhibition at 100 μg/mL.
Setting [2] is: poly E4Y / 32P-ATP, Formula IV compounds.
[3] abbreviates: Table 2, Formula I compounds, NI = no inhibition at 100 μg/mL.
The mark [4] stands for this setting: Table 4, Formula III compounds, NI = no inhibition at 100 μg/mL.

Chain of Recombinant Csk (P41240 whole entry, species assumed): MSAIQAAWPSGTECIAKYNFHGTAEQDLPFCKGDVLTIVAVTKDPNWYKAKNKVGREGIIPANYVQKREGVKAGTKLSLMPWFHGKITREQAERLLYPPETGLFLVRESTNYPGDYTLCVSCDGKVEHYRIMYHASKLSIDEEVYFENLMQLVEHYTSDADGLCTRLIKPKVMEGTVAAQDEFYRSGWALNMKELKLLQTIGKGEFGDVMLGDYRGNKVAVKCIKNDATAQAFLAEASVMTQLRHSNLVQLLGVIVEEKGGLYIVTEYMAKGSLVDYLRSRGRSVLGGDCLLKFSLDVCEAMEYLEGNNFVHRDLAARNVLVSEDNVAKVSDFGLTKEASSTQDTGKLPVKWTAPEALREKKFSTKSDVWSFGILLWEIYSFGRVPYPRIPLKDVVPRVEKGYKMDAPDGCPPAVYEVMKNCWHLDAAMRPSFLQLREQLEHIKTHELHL

In the case of `Cc1ccc(S(=O)(=O)Nc2ccc(N3CCN(S(=O)(=O)c4ccc(C)cc4)CC3)cc2NS(=O)(=O)c2ccc(C)cc2)cc1` [Compound 17e, N-{2-(4-toluenesulfonylamino)-4-[4-(toluene-4-sulfonyl)-piperazin-1-yl]-phenyl}-4-toluenesulfonamide], the figures for the half-inhibitory concentration (IC50) at FGF receptor (FGFr) (setting [1]), on Recombinant human Src (setting [1]) and at Recombinant Csk (setting [1]) were 21 µM, 19 µM and greater than 153 µM, respectively.
For the molecule `Cc1ccc(S(=O)(=O)Nc2cc([N+](=O)[O-])c(Sc3ccc(Cl)cc3)cc2N)cc1` [Compound 55, N-[2-amino-4-(4-chloro-phenylsulfanyl)-5-nitro-phenyl]-4-toluenesulfonamide], the values for the half-inhibitory concentration (IC50) on FGF receptor (FGFr) (setting [2]), on Recombinant human Src (setting [2]) and on Recombinant Csk (setting [2]) were 2.2 µM, 33 µM and greater than 222 µM, respectively.
In the case of `Cc1ccc(S(=O)(=O)Nc2ccc(OCc3ccc(Cl)cc3)cc2NS(=O)(=O)c2ccc(C)cc2)cc1` [Compound 15b, N-[4-(4-chloro-benzyloxy)-2-(4-toluenesulfonylamino)-phenyl]-4-toluenesulfonamide], the IC50 is 88 µM at FGF receptor (FGFr) (setting [1]), 14 µM on Recombinant human Src (setting [1]) and greater than 180 µM on Recombinant Csk (setting [1]).
For `COc1ccc(Oc2ccc(NS(=O)(=O)c3ccc(NC(C)=O)cc3)c(NS(=O)(=O)c3ccc(NC(C)=O)cc3)c2)cc1` [Compound 12j, N-[2-(4-acetamido-benzenesulfonylamino)-4-(4-methoxy-phenoxy)-phenyl]-4-acetamido-benzenesulfonamide], in that order: 192 µM, 50 µM and greater than 160 µM.
In the case of `Cc1ccc(S(=O)(=O)Nc2ccc(SCc3ccccc3Cl)cc2NS(=O)(=O)c2ccc(C)cc2)cc1` [Compound 15g, N-[4-(2-chloro-benzylsulfanyl)-2-(4-toluenesulfonylamino)-phenyl]-4-toluenesulfonamide], the “IC50 (μM) FGFr” value against FGF receptor (FGFr) (setting [1]) is “NI (NI = no inhibition at 100 μg/mL)”. For the same molecule, the IC50 on Recombinant human Src (setting [1]) was 11 µM; at Recombinant Csk (setting [1]) it was greater than 174 µM.
Turning to `Cc1ccc(S(=O)(=O)Nc2ccc([N+](=O)[O-])c(Sc3ccc(Cl)cc3)c2)cc1` [Compound 70, N-[3-(4-chloro-phenylsulfanyl)-4-nitro-phenyl]-4-toluenesulfonamide], the IC50 came to 251 µM at FGF receptor (FGFr) (setting [2]), 599 µM on Recombinant human Src (setting [2]) and 369 µM at Recombinant Csk (setting [2]).
Regarding `COc1ccc(Oc2ccc(NS(=O)(=O)c3ccc(C)cc3)c(NS(=O)(=O)c3ccc(C)cc3)c2)cc1` [Compound 12p, N-[5-(4-methoxy-phenoxy)-2-(4-toluenesulfonylamino)-phenyl]-4-toluenesulfonamide], the figures for the IC50 against FGF receptor (FGFr) (setting [1]), on Recombinant human Src (setting [1]) and on Recombinant Csk (setting [1]) were 26 µM, 28 µM and greater than 186 µM, respectively.
Consider “N-[4-chloro-2-(4-toluenesulfonylamino)-phenyl]-4-toluenesulfonamide [Compound 6]”, for which the values for the IC50 against FGF receptor (FGFr) (setting [3]), at Recombinant human Src (setting [3]) and at Recombinant Csk (setting [3]) were 20.2 µM, 1060 µM and 172 µM, respectively.
For the molecule `Cc1ccc(S(=O)(=O)Nc2ccc(OCc3cccc(Cl)c3)cc2NS(=O)(=O)c2ccc(C)cc2)cc1` [Compound 15c, N-[4-(3-chloro-benzyloxy)-2-(4-toluenesulfonylamino)-phenyl]-4-toluenesulfonamide], the IC50 at FGF receptor (FGFr) (setting [1]) was 54 µM; at Recombinant human Src (setting [1]) it was 27 µM; on Recombinant Csk (setting [1]), greater than 180 µM.
For `CC(=O)Nc1cc(NS(=O)(=O)c2ccc(C)cc2)c(NS(=O)(=O)c2ccc(C)cc2)cc1Sc1ccc(Cl)cc1` [Compound 24, N-[2-(4-chloro-phenylsulfanyl)-4,5-bis-(4-toluenesulfonylamino)-phenyl]-acetamide], the values for the IC50 against FGF receptor (FGFr) (setting [4]), on Recombinant human Src (setting [4]) and on Recombinant Csk (setting [4]) were 515 µM, greater than 162 µM and greater than 162 µM, respectively.
Take `Cc1ccc(S(=O)(=O)Nc2ccc(-n3ccnc3)cc2NS(=O)(=O)c2ccc(C)cc2)cc1` [Compound 17d, N-[4-(imidazol-1-yl)-2-(4-toluenesulfonylamino)-phenyl]-4-toluenesulfonamide]: the half-maximal inhibitory concentration (IC50) on FGF receptor (FGFr) (setting [1]) is 3.1 µM; on Recombinant human Src (setting [1]), 51 µM; at Recombinant Csk (setting [1]), greater than 207 µM.
Take `Cc1ccc(S(=O)(=O)Nc2ccc(OCCCO)cc2NS(=O)(=O)c2ccc(C)cc2)cc1` [Compound 12bb, N-[4-(3-hydroxy-propoxy)-2-(4-toluenesulfonylamino)-phenyl]-4-toluenesulfonamide]: at FGF receptor (FGFr) (setting [1]), the “IC50 (μM) FGFr” value is recorded as “NI (NI = no inhibition at 100 μg/mL)”. Also, the half-maximal inhibitory concentration (IC50) on Recombinant human Src (setting [1]) and on Recombinant Csk (setting [1]) was greater than 204 µM each time.

As a reminder, the IC50 is the midpoint of a concentration-inhibition curve.
